{"source": "patent US7141383B2", "about": "“EDG8 receptor, its preparation and use” (Sanofi-Aventis Deutschland GmbH, priority 2000, dated 2006)", "key": {"EDG1 receptor": {"target": "EDG1 receptor (Homo sapiens, UniProt P21453)", "sequence (P21453 whole entry)": "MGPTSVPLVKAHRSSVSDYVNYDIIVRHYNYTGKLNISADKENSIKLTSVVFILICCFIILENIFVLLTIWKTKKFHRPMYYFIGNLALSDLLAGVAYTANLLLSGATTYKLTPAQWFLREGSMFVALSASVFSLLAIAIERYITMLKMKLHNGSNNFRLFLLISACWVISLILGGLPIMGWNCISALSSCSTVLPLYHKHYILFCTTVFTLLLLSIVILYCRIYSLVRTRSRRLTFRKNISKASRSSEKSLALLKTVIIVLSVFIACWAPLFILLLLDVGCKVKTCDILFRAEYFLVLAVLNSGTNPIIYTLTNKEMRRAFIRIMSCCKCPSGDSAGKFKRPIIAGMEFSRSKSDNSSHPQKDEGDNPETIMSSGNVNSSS", "assay": "FLIPR intracellular Ca2+ mobilization in CHO cells transfected with EDG1", "format": "cell-based", "settings": "transiently transfected CHO cells; 10, 100, 1000 nM", "protocol": "(§1) FIGS. 2A–F: Mobilization of intracellular Ca^2+ by S1P (10, 100 and 1000 nM) mediated by the EDG1, 3, 5, 6 and 8 receptor in CHO cells, cotransfected with empty vector DNA as a control or the indicated G-protein α subunits.\n(§2) A: S1P-induced Ca^2+-response in CHO cells transfected with vector DNA alone or the G protein α subunits Gq, G16 and Gqi5. B-F: S1P-induced Ca^2+-response in CHO cells transfected with the indicated EDG-receptor subtypes. Agonist-mediated changes of intracellular Ca^2+ were measured with the FLIPR using the Ca^2+-sensitive dye FLUO4 as described in Experimental procedures. Fluorescence of transfected cells loaded with FLUO4 was recorded before and after addition of S1P, applied in the indicated concentrations. Data are expressed as means of quadruplicate determinations in a single experiment.\n(§3) CHO-K1 cells were grown in basal ISCOVE medium supplemented with 10% fetal bovine serum at 37° C. in a humidified 5% CO2 incubator. For transfections, 2×10^5 cells were seeded into 35-mm dishes. About 24 hr later cells were transiently transfected at 50–80% confluency with the indicated receptor and G-protein constructs (1 μg of plasmid DNA each) using the Lipofectamine transfection reagent and the supplied protocol (GIBCO). […]"}, "EDG3 receptor": {"target": "EDG3 receptor (Homo sapiens, UniProt Q99500)", "sequence (Q99500 whole entry)": "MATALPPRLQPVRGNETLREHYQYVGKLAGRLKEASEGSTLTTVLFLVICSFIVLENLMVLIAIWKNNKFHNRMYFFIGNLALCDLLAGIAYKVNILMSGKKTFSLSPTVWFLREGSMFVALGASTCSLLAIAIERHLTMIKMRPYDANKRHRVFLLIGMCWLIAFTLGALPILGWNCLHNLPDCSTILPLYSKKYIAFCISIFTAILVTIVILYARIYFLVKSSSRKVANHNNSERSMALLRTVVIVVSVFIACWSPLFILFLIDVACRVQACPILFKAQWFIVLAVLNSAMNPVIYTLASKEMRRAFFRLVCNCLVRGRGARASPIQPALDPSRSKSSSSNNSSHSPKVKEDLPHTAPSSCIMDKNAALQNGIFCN", "assay": "FLIPR intracellular Ca2+ mobilization in CHO cells transfected with EDG3", "format": "cell-based", "settings": "transiently transfected CHO cells; 10, 100, 1000 nM", "protocol": "as §1, §2, §3"}, "EDG5 receptor": {"target": "T1, EDG5 receptor (Homo sapiens, UniProt O95136)", "T1 construct": "expressed in transfected cells; host or cells: CHO-K1, transient transfection", "T1 sequence (O95136 whole entry)": "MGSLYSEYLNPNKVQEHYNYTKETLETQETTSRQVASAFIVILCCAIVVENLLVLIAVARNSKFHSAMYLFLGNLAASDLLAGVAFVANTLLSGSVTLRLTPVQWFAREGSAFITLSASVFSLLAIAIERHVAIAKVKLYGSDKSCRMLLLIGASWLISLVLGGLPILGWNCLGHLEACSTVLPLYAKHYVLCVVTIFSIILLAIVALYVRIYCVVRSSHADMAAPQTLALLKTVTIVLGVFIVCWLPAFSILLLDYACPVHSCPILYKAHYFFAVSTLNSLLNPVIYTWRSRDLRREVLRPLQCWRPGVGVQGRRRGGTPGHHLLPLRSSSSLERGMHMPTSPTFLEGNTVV", "assay": "FLIPR intracellular Ca2+ mobilization in CHO cells transfected with EDG5", "format": "cell-based", "settings": "transiently transfected CHO cells; 10, 100, 1000 nM", "protocol": "as §1, §2, §3"}, "EDG6 receptor": {"target": "EDG6 receptor (Homo sapiens, UniProt O95977)", "sequence (O95977 whole entry)": "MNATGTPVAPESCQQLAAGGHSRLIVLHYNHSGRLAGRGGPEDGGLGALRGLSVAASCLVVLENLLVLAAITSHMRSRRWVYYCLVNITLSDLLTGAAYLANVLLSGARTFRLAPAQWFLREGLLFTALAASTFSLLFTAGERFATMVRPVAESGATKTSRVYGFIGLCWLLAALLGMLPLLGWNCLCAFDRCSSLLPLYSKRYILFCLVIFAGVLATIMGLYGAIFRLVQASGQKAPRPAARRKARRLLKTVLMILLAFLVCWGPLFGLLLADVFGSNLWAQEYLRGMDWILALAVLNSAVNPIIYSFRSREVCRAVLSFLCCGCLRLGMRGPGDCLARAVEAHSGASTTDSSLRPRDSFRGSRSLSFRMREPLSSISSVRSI", "assay": "FLIPR intracellular Ca2+ mobilization in CHO cells transfected with EDG6", "format": "cell-based", "settings": "absence of any cotransfected G-protein α subunit", "protocol": "as §1, §2, §3"}, "CHO cells": {"tested_on": "CHO cells", "assay": "FLIPR intracellular Ca2+ mobilization in CHO cells without EDG receptor (vector or G protein alpha subunits only)", "format": "cell-based, chinese hamster", "protocol": "as §1, §2, §3"}, "human EDG8 [1]": {"target": "T2, human EDG8 (Homo sapiens, UniProt Q9H228)", "T2 sequence (Q9H228 whole entry)": "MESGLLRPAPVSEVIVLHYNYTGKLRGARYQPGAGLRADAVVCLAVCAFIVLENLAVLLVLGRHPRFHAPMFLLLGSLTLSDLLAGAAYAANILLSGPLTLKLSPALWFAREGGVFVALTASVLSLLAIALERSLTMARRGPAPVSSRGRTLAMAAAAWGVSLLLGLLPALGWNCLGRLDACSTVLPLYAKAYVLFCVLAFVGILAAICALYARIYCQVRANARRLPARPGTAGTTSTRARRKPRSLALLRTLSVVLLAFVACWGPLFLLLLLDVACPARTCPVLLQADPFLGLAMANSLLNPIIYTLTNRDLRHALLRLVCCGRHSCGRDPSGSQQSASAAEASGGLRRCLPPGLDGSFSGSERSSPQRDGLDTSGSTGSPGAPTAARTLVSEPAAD", "assay": "FLIPR intracellular Ca2+ mobilization in CHO cells transiently transfected with EDG8", "format": "cell-based", "parameters": "The 1197 bp PCR product was cloned into the pCDNA3.1(+) mammalian expression vector; expressed in transfected cells; host or cells: CHO-K1, transient transfection", "settings": "for EDG8-mediated increase in intracellular Ca2+ by lysophospholipid mediators: CHO cells transiently transfected with EDG8 and Gα16 or Gαqi5, lipids at 10, 100, 1000 nM", "method": "FIG. 3: Effects of S1P, LPA and related lysophospholipid mediators on EDG8-mediated increase in intracellular Ca^2+. CHO-cells were cotransfected with EDG8 and the G protein α subunits Gqi5 (upper panel) and G16 (lower panel) and rises in [Ca^2+]i were recorded with the FLIPR as described in Experimental procedures. The different lipids were applied in concentrations of 10, 100 and 1000 nM, respectively. Data are means of quadruplicate determinations of a representative experiment.\nCHO-K1 cells were grown in basal ISCOVE medium supplemented with 10% fetal bovine serum at 37° C. in a humidified 5% CO2 incubator. For transfections, 2×10^5 cells were seeded into 35-mm dishes. About 24 hr later cells were transiently transfected at 50–80% confluency with the indicated receptor and G-protein constructs (1 μg of plasmid DNA each) using the Lipofectamine transfection reagent and the supplied protocol (GIBCO). 18–24 hr after transfection cells were seeded into 96well plates at a density of 50,000 cells per well and cultured for 18–24 additional hr until used in the functional FLIPR assays.\nTwenty-four hours after transfection, cells were splitted into 96-well, black-wall microplates (Corning) at a density of 50,000 cells per well. 18–24 hr later, cells were loaded with 95 μl of HBSS containing 20 mM Hepes, 2.5 mM probenecid, 4 μM fluorescent calcium indicator dye Fluo4 (Molecular Probes) and 1% fetal bovine serum for 1 h (37° C., 5% CO2). Cells were washed three times with HBSS containing 20 mM Hepes and 2.5 mM probenecid in a cell washer. After the final wash, the solution was aspirated to a residual volume of 100 μl per 96 well. Lipid ligands were dissolved in DMSO as 2 mM stock solutions (treated with ultrasound when necessary) and diluted at least 1:100 into HBSS containing 20 mM HEPES, 2.5 mM probenecid and 0.4 mg/ml fatty acid free bovine serum albumine. Lipids were aliquoted as 2× solutions into a 96 well plate prior to the assay. The fluorometric imaging plate reader (FLIPR, Molecular Devices) was programmed to transfer 100 μl from each well of the ligand microplate to each well of the cellplate and to record fluorescence during 3 min in 1 second intervals during the first minute and 3 second intervals during the last two minutes. Total fluorescence counts from the 18-s to 37-s time points are used to determine agonist activity. The instrument software normalizes the fluorescent reading to give equivalent initial readings at time zero."}, "rat EDG8": {"target": "T3, rat EDG8 (Rattus norvegicus, UniProt Q9JKM5)", "T3 construct": "expressed in transfected cells", "T3 sequence (Q9JKM5 whole entry)": "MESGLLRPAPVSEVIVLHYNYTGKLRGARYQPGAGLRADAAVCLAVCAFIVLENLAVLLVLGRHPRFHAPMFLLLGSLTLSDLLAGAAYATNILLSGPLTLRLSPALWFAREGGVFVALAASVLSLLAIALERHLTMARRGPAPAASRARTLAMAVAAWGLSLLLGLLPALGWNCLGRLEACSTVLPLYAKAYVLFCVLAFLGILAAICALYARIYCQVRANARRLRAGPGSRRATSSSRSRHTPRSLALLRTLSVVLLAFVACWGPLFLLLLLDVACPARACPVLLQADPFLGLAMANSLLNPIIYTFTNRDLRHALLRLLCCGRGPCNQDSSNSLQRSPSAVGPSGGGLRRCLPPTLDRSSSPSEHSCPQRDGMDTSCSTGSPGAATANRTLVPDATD", "assay": "Effect of inhibitor alone on [Ca2+]i during preincubation, cells cotransfected with rat EDG8 and Gαqi5", "format": "cell-based", "settings": "3 minutes, before 1 μM S1P", "protocol": "(§4) FIG. 9: Inhibition of S1P mediated intracellular calcium release by suramin and NF023 (8,8′-(carbonylbis(imino-3,1-phenylene))bis-(1,3,5-naphatlenetrisulfonic acid)) in cells transiently cotransfected with human EDG8 and Gαqi5 (A) and rat EDG8 and Gαqi5 (B). […] Cells were then stimulated with 1 μM S1P and in [Ca^2+]i measured with the FLIPR as described in the method section. Peak fluorescence counts were normalized and background responses of Gαqi5-transfected cells were subtracted. S1P-mediated calcium release in the absence of inhibitor was set 100%. Data are means±SE of 4–7 independent experiments.\n(§5) Twenty-four hours after transfection, cells were splitted into 96-well, black-wall microplates (Corning) at a density of 50,000 cells per well. […] The fluorometric imaging plate reader (FLIPR, Molecular Devices) was programmed to transfer 100 μl from each well of the ligand microplate to each well of the cellplate and to record fluorescence during 3 min in 1 second intervals during the first minute and 3 second intervals during the last two minutes. Total fluorescence counts from the 18-s to 37-s time points are used to determine agonist activity. The instrument software normalizes the fluorescent reading to give equivalent initial readings at time zero."}, "human EDG8 [2]": {"target": "T2, human EDG8", "assay": "Effect of inhibitor alone on [Ca2+]i during preincubation, cells cotransfected with human EDG8 and Gαqi5", "format": "cell-based", "parameters": "The 1197 bp PCR product was cloned into the pCDNA3.1(+) mammalian expression vector; expressed in transfected cells", "settings": "3 minutes, before 1 μM S1P", "protocol": "as §4, §5"}}}
{"compound": "CCCCCCCCCCCCC/C=C/[C@@H](O)[C@@H](N)COP(=O)(O)O", "note": "[S1P, sphingosine 1-phosphate]", "values": [{"measurement": "S1P-induced [Ca2+]i mobilization via EDG1", "setting": "EDG1 receptor", "value": "mobilize [Ca^2+]i in response to S1P"}, {"measurement": "S1P-induced [Ca2+]i mobilization via EDG3", "setting": "EDG3 receptor", "value": "mobilize [Ca^2+]i in response to S1P"}, {"measurement": "S1P-induced [Ca2+]i mobilization via EDG5", "setting": "EDG5 receptor", "value": "mobilize [Ca^2+]i in response to S1P"}, {"measurement": "S1P-induced [Ca2+]i mobilization via EDG6", "setting": "EDG6 receptor", "value": "failed to detect a significant Ca^2+ increase above basal levels"}, {"measurement": "S1P-induced rise in intracellular Ca2+", "setting": "CHO cells; CHO cells transfected with empty vector DNA, 10, 100, 1000 nM", "value": "None of the applied S1P concentrations was capable of eliciting significant rises in intracellular Ca^2+"}, {"measurement": "S1P-induced increase in [Ca2+]i", "setting": "CHO cells; Gqi5- and G16-transfected CHO cells, no EDG receptor", "value": "did not give rise to significant increases in [Ca^2+]i"}, {"measurement": "EDG8-mediated increase in intracellular Ca2+ by lysophospholipid mediators", "setting": "human EDG8 [1]", "value": "most potent activator of EDG8"}, {"measurement": "S1P-induced Ca2+ mobilization via EDG8", "setting": "human EDG8 [1]; CHO cells, EDG8 cotransfected with Gα16 or Gαqi5, 10, 100 and 1000 nM", "value": "gained the ability to mobilize Ca^2+"}, {"measurement": "S1P-induced [Ca2+]i release via EDG8", "setting": "human EDG8 [1]; CHO cells, EDG8 without cotransfected G protein α subunit, 10, 100 and 1000 nM", "value": "did not release [Ca^2+]i"}]}
{"compound": "CCCCCCCCCCCCC/C=C/[C@@H](O)[C@@H](N)COP(=O)([O-])OCC[N+](C)(C)C", "note": "[SPC, sphingosylphosphorylcholine]", "values": [{"measurement": "EDG8-mediated increase in intracellular Ca2+ by lysophospholipid mediators", "setting": "human EDG8 [1]", "value": "failed to generate any significant response in concentrations up to 1 μM"}]}
{"compound": "CCCCCCCCCCCCCCC[C@@H](O)[C@@H](N)COP(=O)(O)O", "note": "[dHS1P, dihydro sphingosine 1-phosphate]", "values": [{"measurement": "EDG8-mediated increase in intracellular Ca2+ by lysophospholipid mediators", "setting": "human EDG8 [1]", "value": "evoked [Ca^2+]i increases in concentrations of 100 and 1000 nM"}]}
{"compound": "Cc1ccc(C(=O)Nc2ccc(S(=O)(=O)O)c3cc(S(=O)(=O)O)cc(S(=O)(=O)O)c23)cc1NC(=O)c1cccc(NC(=O)Nc2cccc(C(=O)Nc3cc(C(=O)Nc4ccc(S(=O)(=O)O)c5cc(S(=O)(=O)O)cc(S(=O)(=O)O)c45)ccc3C)c2)c1", "note": "[suramin]", "values": [{"measurement": "Effect on [Ca2+]i mobilization during preincubation period", "setting": "rat EDG8", "value": "did not show any effect"}, {"measurement": "Effect on [Ca2+]i mobilization during preincubation period", "setting": "human EDG8 [2]", "value": "did not show any effect"}]}
{"compound": "lysophosphatidic acid [LPA]", "values": [{"measurement": "EDG8-mediated increase in intracellular Ca2+ by lysophospholipid mediators", "setting": "human EDG8 [1]", "value": "evoked [Ca^2+]i increases in concentrations of 100 and 1000 nM"}]}
{"compound": "lysophosphatidylcholine [LPC]", "values": [{"measurement": "EDG8-mediated increase in intracellular Ca2+ by lysophospholipid mediators", "setting": "human EDG8 [1]", "value": "failed to generate any significant response in concentrations up to 1 μM"}]}
